Reference: patent US12516060B2, “Solid freebase forms of 5-chloro-2-(4-((2-hydroxy-2-methylpropyl)amino)pyrido[3,4-d]pyridazin-1-yl)phenol for inhibiting NLRP3 and uses thereof” (Ventus Therapeutics U.S., Inc., priority 2023, dated 2026)
Entries after “also recorded” stand apart in the source; their conditions may differ.

What was measured:
Format in all cases: physicochemical
[1] = Dynamic Vapor Sorption (DVS)
Experimental: DVS was performed using TA Instruments Q5000SA. The sample (5-15 mg) was loaded into a metallic quartz sample pan, suspended from a microbalance, and exposed to a humidified stream of nitrogen gas. Weight changes were relative to a matching empty reference pan opposite the sample, suspended from the microbalance. The sample was held for a minimum of 10 min at each level and only progressed to the next humidity level if there was <0.002% change in weight between measurements (interval: 5 s) or 45 min had elapsed (for 5-65% RH) or 2 h had elapsed (for 80 and 95% RH). Mass change by DVS is related to hygroscopicity.

[2] = Solid form stability studies, 75% RH at 40° C. for one week (XRPD and HPLC)
Experimental: Solid form stability studies were performed on Form I-V freebase forms by weighing approximately 10-15 mg of the crystalline material into 4 mL vials and covering with a lab grade task wipe (Kimwipe). These vials were placed inside a stability chamber set at 75%±5% relative humidity (RH) at 40° C.±2° C., where they were left for one week (7 full days). The retrieved material was then analyzed by XRPD and HPLC. In each case, the initial material and tested material were identical by XRPD, with the exception of Form I freebase, where an extra peak at 5.8 °2θ in the initial material was absent after the stability test. HPLC purities of the tested material were essentially unchanged from those of the initial material.

[3] = Second set of competitive slurry experiments (Form V vs Form I and Form II)
Experimental: A second set of competitive slurry experiments was set up in three solvent systems and two temperatures to assess the relative stability of Form V freebase with respect to Form I freebase and Form II freebase. […] In all samples, the input seed patterns were observed less than 1 min after addition. […] After 7 days, the quantity of Form II freebase remaining in the RT acetonitrile sample was greatly diminished, though Form II freebase was still present in trace quantities.

SMILES: CC(C)(O)CNc1nnc(-c2ccc(Cl)cc2O)c2ccncc12 [Form V freebase, 5-chloro-2-(4-((2-hydroxy-2-methylpropyl)amino)pyrido[3,4-d]pyridazin-1-yl)phenol]
- DVS mass change 5-95% RH (wt. %) ([1]; 5-95% RH): 0.20 wt. %
- water uptake, weight gain between 5-95% relative humidity (RH) ([1]; DVS, 5-95% RH): about 0.20%
- hygroscopicity ([1]; DVS, all adsorbed water lost during the drying cycle): slightly, hygroscopic
- relative hygroscopicity among the Forms studied by DVS ([1]; Forms I-V): least hygroscopic
- XRPD pre- and post-DVS ([1]; form stability after DVS cycle): remained unchanged
- XRPD (tested material) ([2]; 75% ± 5% RH at 40° C. ± 2° C. for 1 week): Form V
- Purity % a/a (tested material) ([2]; HPLC, after 75% ± 5% RH at 40° C. ± 2° C. for 1 week): 99.60 % a/a
- Purity % a/a (input material) ([2]; HPLC, before stability test): 99.46 % a/a
- solid-form and chemical stability at elevated RH ([2]; one-week at 75% RH and 40° C.): no form change or purity decrease
- form observed by XRPD after 3 days ([3]; acetonitrile, MeOH, acetone:water (7:3 vol.), RT and 50° C., 3 days): the sole form observed in all experiments, except in acetonitrile at RT
- relative (thermodynamic) stability vs Form I and Form II ([3]; second set of slurries, various solvent systems): favored over both Form I and II freebase; also recorded: most thermodynamically stable form studied
